ChEMBL document CHEMBL5465560, “Selectivity Literature for EUbOPEN Chemogenomic Library” (2024)

Assays:
[1] = target: T1, Mitogen-activated protein kinase 12 (Homo sapiens) (UniProt P53778); test: Selectivity interaction (Upstate Kinase Profiler service (Millipore)) EUB0000056c MAPK12; conditions: at 1 µM
T1 sequence (whole entry): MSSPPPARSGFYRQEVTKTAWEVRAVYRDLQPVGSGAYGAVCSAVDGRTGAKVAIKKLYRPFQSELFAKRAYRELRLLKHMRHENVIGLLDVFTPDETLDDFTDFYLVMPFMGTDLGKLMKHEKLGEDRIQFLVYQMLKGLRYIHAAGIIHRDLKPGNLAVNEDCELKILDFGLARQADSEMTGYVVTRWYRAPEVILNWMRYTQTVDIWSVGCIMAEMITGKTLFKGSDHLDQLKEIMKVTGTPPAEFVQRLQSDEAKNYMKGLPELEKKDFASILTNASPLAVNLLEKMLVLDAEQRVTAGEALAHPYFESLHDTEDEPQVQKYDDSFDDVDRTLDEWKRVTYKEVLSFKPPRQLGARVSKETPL

[2] = target: Phosphatidylinositol 4-kinase alpha (Homo sapiens, UniProt P42356); test: Selectivity interaction (ActivX KiNativ screen (kinase selectivity in THP-1 cell lysates)) EUB0000639a PI4KA; format: subcellular; conditions: lysate
[3] = target: T2, Protein kinase C zeta type (Homo sapiens) (UniProt Q05513); test: Selectivity interaction (Millipore kinase profiler) EUB0000124b PRKCZ; conditions: at 10 µM
T2 sequence (whole entry): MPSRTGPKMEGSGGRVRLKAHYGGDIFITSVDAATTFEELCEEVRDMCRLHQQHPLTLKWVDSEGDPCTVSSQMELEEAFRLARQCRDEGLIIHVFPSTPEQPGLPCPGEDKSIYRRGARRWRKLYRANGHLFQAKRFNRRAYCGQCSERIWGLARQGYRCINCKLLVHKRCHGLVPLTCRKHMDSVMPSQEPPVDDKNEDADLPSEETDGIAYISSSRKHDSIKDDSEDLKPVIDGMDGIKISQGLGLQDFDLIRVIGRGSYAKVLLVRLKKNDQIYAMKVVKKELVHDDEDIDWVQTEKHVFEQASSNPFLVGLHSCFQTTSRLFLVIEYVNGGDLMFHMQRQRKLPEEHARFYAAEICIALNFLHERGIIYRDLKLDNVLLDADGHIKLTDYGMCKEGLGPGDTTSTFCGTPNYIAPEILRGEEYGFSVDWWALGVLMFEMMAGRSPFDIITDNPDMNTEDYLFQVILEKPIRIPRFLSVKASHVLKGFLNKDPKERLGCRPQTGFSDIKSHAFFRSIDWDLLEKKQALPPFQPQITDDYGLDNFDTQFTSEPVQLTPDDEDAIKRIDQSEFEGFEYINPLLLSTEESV

[4] = tested on: Epidermal growth factor receptor (Homo sapiens), P00533 [L858R,T790M]; conditions: at 10 µM
[5] = target: T3, Serine/threonine-protein kinase Nek1 (Homo sapiens) (UniProt Q96PY6); test: Selectivity interaction (KinomeScan (DiscoverX)) EUB0001619a NEK1; conditions: at 1 µM
T3 sequence (whole entry): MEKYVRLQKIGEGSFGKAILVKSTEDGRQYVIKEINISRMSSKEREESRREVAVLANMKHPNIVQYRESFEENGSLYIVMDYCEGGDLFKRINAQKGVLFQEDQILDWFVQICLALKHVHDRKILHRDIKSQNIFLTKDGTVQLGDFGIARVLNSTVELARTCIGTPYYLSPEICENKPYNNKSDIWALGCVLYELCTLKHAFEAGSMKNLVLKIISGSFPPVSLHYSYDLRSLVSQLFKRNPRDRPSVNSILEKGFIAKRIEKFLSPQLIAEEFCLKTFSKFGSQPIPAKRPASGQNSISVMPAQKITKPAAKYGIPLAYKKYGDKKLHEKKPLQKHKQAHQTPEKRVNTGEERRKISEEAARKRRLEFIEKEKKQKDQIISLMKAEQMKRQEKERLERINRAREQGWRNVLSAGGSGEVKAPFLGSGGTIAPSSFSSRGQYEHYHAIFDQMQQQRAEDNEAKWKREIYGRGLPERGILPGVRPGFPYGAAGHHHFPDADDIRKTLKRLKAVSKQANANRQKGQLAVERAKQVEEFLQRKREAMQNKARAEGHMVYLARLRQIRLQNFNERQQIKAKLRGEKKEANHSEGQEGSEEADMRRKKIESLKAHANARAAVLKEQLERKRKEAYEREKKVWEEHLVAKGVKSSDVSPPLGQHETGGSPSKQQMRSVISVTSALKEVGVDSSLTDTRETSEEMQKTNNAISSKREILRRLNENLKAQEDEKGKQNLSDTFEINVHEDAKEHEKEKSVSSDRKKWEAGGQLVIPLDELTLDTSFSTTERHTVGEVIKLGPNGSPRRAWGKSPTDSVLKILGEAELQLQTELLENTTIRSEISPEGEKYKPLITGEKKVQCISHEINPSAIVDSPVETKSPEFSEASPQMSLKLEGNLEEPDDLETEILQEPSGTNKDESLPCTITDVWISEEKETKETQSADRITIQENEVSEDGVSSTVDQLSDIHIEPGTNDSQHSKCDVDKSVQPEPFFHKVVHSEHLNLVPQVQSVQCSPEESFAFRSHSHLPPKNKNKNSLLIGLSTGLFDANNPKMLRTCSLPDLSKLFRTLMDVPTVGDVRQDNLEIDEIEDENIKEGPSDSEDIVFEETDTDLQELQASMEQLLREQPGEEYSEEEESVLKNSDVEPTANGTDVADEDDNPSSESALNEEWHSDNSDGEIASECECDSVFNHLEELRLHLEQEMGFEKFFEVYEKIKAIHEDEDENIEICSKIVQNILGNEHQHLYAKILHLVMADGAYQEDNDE

Sequence of Phosphatidylinositol 4-kinase alpha (P42356 whole entry, looked up): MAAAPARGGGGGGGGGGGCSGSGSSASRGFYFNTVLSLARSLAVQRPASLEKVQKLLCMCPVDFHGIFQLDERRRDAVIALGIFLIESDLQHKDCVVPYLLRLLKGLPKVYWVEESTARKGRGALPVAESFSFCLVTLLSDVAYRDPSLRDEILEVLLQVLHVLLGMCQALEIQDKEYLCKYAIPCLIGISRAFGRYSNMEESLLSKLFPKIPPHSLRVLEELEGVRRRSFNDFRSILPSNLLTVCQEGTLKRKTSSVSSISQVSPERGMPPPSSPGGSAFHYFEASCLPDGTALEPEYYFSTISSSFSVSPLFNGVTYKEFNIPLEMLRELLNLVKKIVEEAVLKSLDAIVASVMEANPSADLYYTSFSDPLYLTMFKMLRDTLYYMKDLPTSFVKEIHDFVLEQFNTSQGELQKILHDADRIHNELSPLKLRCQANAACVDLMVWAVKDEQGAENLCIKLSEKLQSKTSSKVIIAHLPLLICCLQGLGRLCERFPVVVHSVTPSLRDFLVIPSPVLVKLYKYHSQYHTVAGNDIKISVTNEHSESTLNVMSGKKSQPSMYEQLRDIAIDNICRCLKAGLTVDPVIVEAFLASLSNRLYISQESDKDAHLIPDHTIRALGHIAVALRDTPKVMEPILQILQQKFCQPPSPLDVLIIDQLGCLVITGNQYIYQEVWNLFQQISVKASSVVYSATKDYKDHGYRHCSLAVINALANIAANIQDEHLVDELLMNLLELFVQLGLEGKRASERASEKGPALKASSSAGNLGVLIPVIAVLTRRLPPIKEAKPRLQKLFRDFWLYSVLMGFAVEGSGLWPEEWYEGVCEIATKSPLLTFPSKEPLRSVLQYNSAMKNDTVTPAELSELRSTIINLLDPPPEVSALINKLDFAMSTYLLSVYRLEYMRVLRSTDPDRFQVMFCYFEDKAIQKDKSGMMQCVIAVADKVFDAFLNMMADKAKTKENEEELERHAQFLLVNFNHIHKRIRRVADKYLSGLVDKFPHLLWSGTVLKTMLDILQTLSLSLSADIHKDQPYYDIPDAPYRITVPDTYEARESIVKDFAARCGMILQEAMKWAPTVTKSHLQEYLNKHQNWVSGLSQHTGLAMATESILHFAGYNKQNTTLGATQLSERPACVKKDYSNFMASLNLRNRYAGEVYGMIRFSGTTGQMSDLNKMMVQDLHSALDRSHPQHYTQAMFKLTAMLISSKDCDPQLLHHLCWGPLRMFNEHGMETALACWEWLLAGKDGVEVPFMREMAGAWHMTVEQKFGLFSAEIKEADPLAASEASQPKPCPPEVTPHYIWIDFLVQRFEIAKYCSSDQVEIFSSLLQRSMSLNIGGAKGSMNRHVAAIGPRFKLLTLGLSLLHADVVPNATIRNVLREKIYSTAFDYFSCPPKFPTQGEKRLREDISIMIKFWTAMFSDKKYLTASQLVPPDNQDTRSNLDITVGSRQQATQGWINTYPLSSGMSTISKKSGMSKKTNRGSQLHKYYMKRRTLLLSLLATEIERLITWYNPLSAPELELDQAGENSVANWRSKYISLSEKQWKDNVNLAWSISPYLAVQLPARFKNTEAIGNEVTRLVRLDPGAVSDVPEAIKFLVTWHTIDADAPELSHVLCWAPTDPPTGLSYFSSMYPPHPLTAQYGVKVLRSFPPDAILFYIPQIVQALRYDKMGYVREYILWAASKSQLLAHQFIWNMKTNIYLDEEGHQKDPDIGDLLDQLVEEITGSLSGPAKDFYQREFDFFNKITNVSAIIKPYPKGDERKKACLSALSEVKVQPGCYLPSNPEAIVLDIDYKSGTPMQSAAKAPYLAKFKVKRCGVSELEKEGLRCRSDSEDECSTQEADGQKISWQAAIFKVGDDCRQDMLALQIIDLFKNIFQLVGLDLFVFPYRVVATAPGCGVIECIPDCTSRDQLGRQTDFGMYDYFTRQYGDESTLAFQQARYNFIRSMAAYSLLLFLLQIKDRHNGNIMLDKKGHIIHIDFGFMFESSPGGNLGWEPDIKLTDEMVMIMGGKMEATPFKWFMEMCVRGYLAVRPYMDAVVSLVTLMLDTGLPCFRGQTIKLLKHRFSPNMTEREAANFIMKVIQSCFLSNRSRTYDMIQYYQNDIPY
Sequence of Epidermal growth factor receptor (Homo sapiens), P00533 [L858R,T790M] (P00533 whole entry T790M/L858R, looked up): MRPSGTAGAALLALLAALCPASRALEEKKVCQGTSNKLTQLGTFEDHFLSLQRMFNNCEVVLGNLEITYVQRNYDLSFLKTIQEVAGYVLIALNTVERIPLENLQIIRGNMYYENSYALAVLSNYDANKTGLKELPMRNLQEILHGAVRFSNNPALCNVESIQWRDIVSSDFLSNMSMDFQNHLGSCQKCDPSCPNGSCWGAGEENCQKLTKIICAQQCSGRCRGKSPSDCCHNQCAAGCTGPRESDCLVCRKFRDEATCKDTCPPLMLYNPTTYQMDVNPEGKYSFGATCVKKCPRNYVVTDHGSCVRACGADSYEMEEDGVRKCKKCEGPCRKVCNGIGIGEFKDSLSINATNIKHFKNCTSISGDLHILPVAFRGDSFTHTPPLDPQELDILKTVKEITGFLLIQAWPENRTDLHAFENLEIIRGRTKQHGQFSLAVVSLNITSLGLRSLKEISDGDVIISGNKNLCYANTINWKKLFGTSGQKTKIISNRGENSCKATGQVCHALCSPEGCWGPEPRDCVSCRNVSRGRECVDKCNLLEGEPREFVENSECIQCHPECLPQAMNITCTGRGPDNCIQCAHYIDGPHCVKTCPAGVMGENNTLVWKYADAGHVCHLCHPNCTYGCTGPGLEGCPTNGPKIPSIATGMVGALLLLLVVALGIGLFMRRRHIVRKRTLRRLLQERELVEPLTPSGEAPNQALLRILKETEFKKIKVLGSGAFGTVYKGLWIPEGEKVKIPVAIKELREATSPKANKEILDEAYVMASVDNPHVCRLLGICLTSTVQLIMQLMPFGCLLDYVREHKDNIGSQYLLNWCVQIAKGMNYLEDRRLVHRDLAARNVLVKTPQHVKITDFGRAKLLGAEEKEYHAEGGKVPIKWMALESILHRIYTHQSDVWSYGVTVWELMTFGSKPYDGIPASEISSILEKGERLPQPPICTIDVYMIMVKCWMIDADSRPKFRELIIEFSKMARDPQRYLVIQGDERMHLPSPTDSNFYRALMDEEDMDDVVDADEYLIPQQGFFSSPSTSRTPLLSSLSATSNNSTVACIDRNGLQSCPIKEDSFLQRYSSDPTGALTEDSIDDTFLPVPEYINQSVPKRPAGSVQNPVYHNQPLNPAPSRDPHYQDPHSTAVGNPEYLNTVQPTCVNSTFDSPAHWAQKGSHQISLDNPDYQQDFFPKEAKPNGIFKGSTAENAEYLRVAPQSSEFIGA

Cc1ccc(-c2ccc3c(ccc4sc5c(c43)NC[C@@H](C)NC5=O)n2)cn1
% of inhibition [1]: -15%

CC[C@@H]1[C@H](F)C(=O)N[C@@H]1COc1nccc2cc(C(N)=O)c(OC)cc12 [ZIMLOVISERTIB]
% of inhibition ([2]; at 0.01 µM): 7.2% | % of inhibition ([2]; at 0.04 µM): -7.1% | % of inhibition ([2]; at 0.2 µM): -24.4% | % of inhibition ([2]; at 1 µM): -6% | % of inhibition ([2]; at 5 µM): 38.5%

CC(=O)Nc1cccc(-n2c(=O)n(C3CC3)c(=O)c3c(Nc4ccc(I)cc4F)n(C)c(=O)c(C)c32)c1
% of control [3]: 102%

Cc1cc([C@@H](C)Nc2ccccc2C(=O)O)c2nc(N3CCOCC3)cc(=O)n2c1 [AZD-6482]
% of control [4]: 99%

N#Cc1cccc(-c2c[nH]c3ncnc(N4CCOCC4)c23)c1
% of control [5]: 100%
